Values of other authors as cited in PubChem BioAssay AID1259409 (Chemical Carcinogenesis Research Information System (CCRIS), 2018).

Test system: rodent chemically induced tumor inhibition, incidence and multiplicity
Experiment: CCRIS tumor inhibitor studies
Details: Route [Inhibitor]: ORAL

For Cc1c(-c2cnccn2)ssc1=S, the “tumour outcome (control, treated, inhibition, significance)” value (Carcinogen: NITROSOBIS(2-OXOPROPYL)AMINE [60599-38-4], Dose [Inhibitor]: 200 PPM IN DIET FOR 4 WK BEGINNING 1 WK PRIOR TO FIRST CARCINOGEN DOSE (STUDY DURATION: 52 WK), Species: HAMSTER, Strain/Sex: SYRIAN/FEMALE, Target Tissue: Type of Lesion: LIVER: HEPATOCELLULAR ADENOMA, Dose [Carcinogen]: 10 MG/KG BW 1X/WK FOR 3 WK (STUDY DURATION: 52 WK)) is listed as 16.7%, 20.7%, -24%, not significant, the “tumour outcome (control, treated, inhibition, significance)” value (Carcinogen: NITROSOBIS(2-OXOPROPYL)AMINE [60599-38-4], Dose [Inhibitor]: 200 PPM IN DIET FOR 4 WK BEGINNING 1 WK PRIOR TO FIRST CARCINOGEN DOSE (STUDY DURATION: 52 WK), Species: HAMSTER, Strain/Sex: SYRIAN/FEMALE, Target Tissue: Type of Lesion: LIVER: HEPATOCELLULAR CARCINOMA, Dose [Carcinogen]: 10 MG/KG BW 1X/WK FOR 3 WK (STUDY DURATION: 52 WK)) is listed as 6.7%, 6.9%, -3%, not significant and the “tumour outcome (control, treated, inhibition, significance)” value (Carcinogen: NITROSOBIS(2-OXOPROPYL)AMINE [60599-38-4], Dose [Inhibitor]: 200 PPM IN DIET FOR 4 WK BEGINNING 1 WK PRIOR TO FIRST CARCINOGEN DOSE (STUDY DURATION: 52 WK), Species: HAMSTER, Strain/Sex: SYRIAN/FEMALE, Target Tissue: Type of Lesion: LUNG: ADENOCARCINOMA, Dose [Carcinogen]: 10 MG/KG BW 1X/WK FOR 3 WK (STUDY DURATION: 52 WK)) is listed as 46.7%, 37.9%, 19%, not significant. The “tumour outcome (control, treated, inhibition, significance)” value (Carcinogen: NITROSOBIS(2-OXOPROPYL)AMINE [60599-38-4], Dose [Inhibitor]: 200 PPM IN DIET FOR 4 WK BEGINNING 1 WK PRIOR TO FIRST CARCINOGEN DOSE (STUDY DURATION: 52 WK), Species: HAMSTER, Strain/Sex: SYRIAN/FEMALE, Target Tissue: Type of Lesion: LUNG: ADENOMA, Dose [Carcinogen]: 10 MG/KG BW 1X/WK FOR 3 WK (STUDY DURATION: 52 WK)) was 86.7%, 75.9%, 12%, not significant, the “tumour outcome (control, treated, inhibition, significance)” value (Carcinogen: NITROSOBIS(2-OXOPROPYL)AMINE [60599-38-4], Dose [Inhibitor]: 200 PPM IN DIET FOR 4 WK BEGINNING 1 WK PRIOR TO FIRST CARCINOGEN DOSE (STUDY DURATION: 52 WK), Species: HAMSTER, Strain/Sex: SYRIAN/FEMALE, Target Tissue: Type of Lesion: PANCREAS: ADENOCARCINOMA, Dose [Carcinogen]: 10 MG/KG BW 1X/WK FOR 3 WK (STUDY DURATION: 52 WK)) was 13/30 (43.3%), 20/29 (68.9%), -59%, not significant and the “tumour outcome (control, treated, inhibition, significance)” value (Carcinogen: NITROSOBIS(2-OXOPROPYL)AMINE [60599-38-4], Dose [Inhibitor]: 400 PPM IN DIET FOR 4 WK BEGINNING 1 WK PRIOR TO FIRST CARCINOGEN DOSE (STUDY DURATION: 52 WK), Species: HAMSTER, Strain/Sex: SYRIAN/FEMALE, Target Tissue: Type of Lesion: GALL BLADDER: ADENOMA, Dose [Carcinogen]: 10 MG/KG BW 1X/WK FOR 3 WK (STUDY DURATION: 52 WK)) was 13.3%, 21.1%, -59%, not significant. The “tumour outcome (control, treated, inhibition, significance)” value (Carcinogen: NITROSOBIS(2-OXOPROPYL)AMINE [60599-38-4], Dose [Inhibitor]: 400 PPM IN DIET FOR 4 WK BEGINNING 1 WK PRIOR TO FIRST CARCINOGEN DOSE (STUDY DURATION: 52 WK), Species: HAMSTER, Strain/Sex: SYRIAN/FEMALE, Target Tissue: Type of Lesion: KIDNEY: RENAL CELL ADENOMA, Dose [Carcinogen]: 10 MG/KG BW 1X/WK FOR 3 WK (STUDY DURATION: 52 WK)) was 3.3%, 3.4%, -3%, not significant, the “tumour outcome (control, treated, inhibition, significance)” value (Carcinogen: NITROSOBIS(2-OXOPROPYL)AMINE [60599-38-4], Dose [Inhibitor]: 400 PPM IN DIET FOR 4 WK BEGINNING 1 WK PRIOR TO FIRST CARCINOGEN DOSE (STUDY DURATION: 52 WK), Species: HAMSTER, Strain/Sex: SYRIAN/FEMALE, Target Tissue: Type of Lesion: KIDNEY: RENAL CELL CARCINOMA, Dose [Carcinogen]: 10 MG/KG BW 1X/WK FOR 3 WK (STUDY DURATION: 52 WK)) was 6.7%, 10.3%, -54%, not significant and the “tumour outcome (control, treated, inhibition, significance)” value (Carcinogen: NITROSOBIS(2-OXOPROPYL)AMINE [60599-38-4], Dose [Inhibitor]: 400 PPM IN DIET FOR 4 WK BEGINNING 1 WK PRIOR TO FIRST CARCINOGEN DOSE (STUDY DURATION: 52 WK), Species: HAMSTER, Strain/Sex: SYRIAN/FEMALE, Target Tissue: Type of Lesion: LIVER: CHOLANGIOCELLULAR ADENOMA, Dose [Carcinogen]: 10 MG/KG BW 1X/WK FOR 3 WK (STUDY DURATION: 52 WK)) was 6.7%, 0.0%, 100%, not significant. For the same compound, the outcome (Carcinogen: NITROSOBIS(2-OXOPROPYL)AMINE [60599-38-4], Dose [Inhibitor]: 400 PPM IN DIET FOR 4 WK BEGINNING 1 WK PRIOR TO FIRST CARCINOGEN DOSE (STUDY DURATION: 52 WK), Species: HAMSTER, Strain/Sex: SYRIAN/FEMALE, Target Tissue: Type of Lesion: LIVER: CHOLANGIOCELLULAR CARCINOMA, Dose [Carcinogen]: 10 MG/KG BW 1X/WK FOR 3 WK (STUDY DURATION: 52 WK)) was 0.0%, 7.1%, -100%, not significant, the “tumour outcome (control, treated, inhibition, significance)” value (Carcinogen: NITROSOBIS(2-OXOPROPYL)AMINE [60599-38-4], Dose [Inhibitor]: 400 PPM IN DIET FOR 4 WK BEGINNING 1 WK PRIOR TO FIRST CARCINOGEN DOSE (STUDY DURATION: 52 WK), Species: HAMSTER, Strain/Sex: SYRIAN/FEMALE, Target Tissue: Type of Lesion: LIVER: HEPATOCELLULAR ADENOMA, Dose [Carcinogen]: 10 MG/KG BW 1X/WK FOR 3 WK (STUDY DURATION: 52 WK)) was 16.7%, 14.3%, 14%, not significant and the “tumour outcome (control, treated, inhibition, significance)” value (Carcinogen: NITROSOBIS(2-OXOPROPYL)AMINE [60599-38-4], Dose [Inhibitor]: 400 PPM IN DIET FOR 4 WK BEGINNING 1 WK PRIOR TO FIRST CARCINOGEN DOSE (STUDY DURATION: 52 WK), Species: HAMSTER, Strain/Sex: SYRIAN/FEMALE, Target Tissue: Type of Lesion: LIVER: HEPATOCELLULAR CARCINOMA, Dose [Carcinogen]: 10 MG/KG BW 1X/WK FOR 3 WK (STUDY DURATION: 52 WK)) was 6.7%, 7.1%, -6%, not significant. For the same compound, the “tumour outcome (control, treated, inhibition, significance)” value (Carcinogen: NITROSOBIS(2-OXOPROPYL)AMINE [60599-38-4], Dose [Inhibitor]: 400 PPM IN DIET FOR 4 WK BEGINNING 1 WK PRIOR TO FIRST CARCINOGEN DOSE (STUDY DURATION: 52 WK), Species: HAMSTER, Strain/Sex: SYRIAN/FEMALE, Target Tissue: Type of Lesion: LUNG: ADENOCARCINOMA, Dose [Carcinogen]: 10 MG/KG BW 1X/WK FOR 3 WK (STUDY DURATION: 52 WK)) was 46.7%, 17.2%, 63%, p<0.05, the “tumour outcome (control, treated, inhibition, significance)” value (Carcinogen: NITROSOBIS(2-OXOPROPYL)AMINE [60599-38-4], Dose [Inhibitor]: 400 PPM IN DIET FOR 4 WK BEGINNING 1 WK PRIOR TO FIRST CARCINOGEN DOSE (STUDY DURATION: 52 WK), Species: HAMSTER, Strain/Sex: SYRIAN/FEMALE, Target Tissue: Type of Lesion: LUNG: ADENOMA, Dose [Carcinogen]: 10 MG/KG BW 1X/WK FOR 3 WK (STUDY DURATION: 52 WK)) was 86.7%,58.6%, 32%, p<0.05 and the “tumour outcome (control, treated, inhibition, significance)” value (Carcinogen: NITROSOBIS(2-OXOPROPYL)AMINE [60599-38-4], Dose [Inhibitor]: 400 PPM IN DIET FOR 4 WK BEGINNING 1 WK PRIOR TO FIRST CARCINOGEN DOSE (STUDY DURATION: 52 WK), Species: HAMSTER, Strain/Sex: SYRIAN/FEMALE, Target Tissue: Type of Lesion: PANCREAS: ADENOCARCINOMA, Dose [Carcinogen]: 10 MG/KG BW 1X/WK FOR 3 WK (STUDY DURATION: 52 WK)) was 13/30 (43.3%), 19/28 (67.9%), -57%, not significant. For the same compound, the “tumour outcome (control, treated, inhibition, significance)” value (Dose [Inhibitor]: 0, 0.075% IN DIET FOR 4 WK BEGINNING 1 WK PRIOR TO CARCINOGEN TREATMENT (STUDY DURATION: 23 MO), Species: RAT, Strain/Sex: F344/MALE, Target Tissue: Type of Lesion: LIVER: ADENOMA, Dose [Carcinogen]: 25 UG IN 0.1 ML TRICAPRYLIN 5 D/WK FOR 2 WK, Promoter: NONE USED) was 4/45 (9%), 0/46 (0%), 100%, p<0.05 and the “tumour outcome (control, treated, inhibition, significance)” value (Dose [Inhibitor]: 0, 0.075% IN DIET FOR 4 WK BEGINNING 1 WK PRIOR TO CARCINOGEN TREATMENT (STUDY DURATION: 23 MO), Species: RAT, Strain/Sex: F344/MALE, Target Tissue: Type of Lesion: LIVER: CARCINOMA, Dose [Carcinogen]: 25 UG IN 0.1 ML TRICAPRYLIN 5 D/WK FOR 2 WK, Promoter: NONE USED) was 5/45 (11%), 0/46 (0%), 100%, p<0.05.
